Results on 21 compounds are retold here after patent US20230225991A1, “COMPOUNDS FOR USE IN THE TREATMENT OF ACUTE INTERMITTENT PORPHYRIA” (VESTLANDETS INNOVASJONSSELSKAP AS, priority 2019, published 2023).

In brackets after ≈: the same amount, converted by molar mass.

For data set [1], the target named is T1, HMBS (Homo sapiens, UniProt P08397).
T1 sequence (P08397 1-361): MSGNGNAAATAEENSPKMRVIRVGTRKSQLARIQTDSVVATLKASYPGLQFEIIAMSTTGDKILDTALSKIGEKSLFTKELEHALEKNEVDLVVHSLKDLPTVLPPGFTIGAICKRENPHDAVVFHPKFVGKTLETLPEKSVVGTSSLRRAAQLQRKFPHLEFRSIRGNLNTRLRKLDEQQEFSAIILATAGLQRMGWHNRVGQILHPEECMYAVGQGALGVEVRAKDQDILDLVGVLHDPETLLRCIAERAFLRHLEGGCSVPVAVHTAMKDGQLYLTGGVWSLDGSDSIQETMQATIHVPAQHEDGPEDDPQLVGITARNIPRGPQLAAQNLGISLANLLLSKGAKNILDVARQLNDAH
As to the kind of experiment: Octet RED KD determination (Example 21). Conditions: steady state analysis, 6.25 to 500 μM, PBS-P+ 5% DMSO. Format: binding. On the set-up: Full-length HMBS was cloned into pET-28a(+)-TEV vector and transformed into BL21 (DE3) cells for expression; 6xHis (N, cleaved yes); TEV protease cleavage site (N, cleaved yes); made in house; host or cells: E. coli BL21 (DE3). How it is done:
Octet RED (Forte Bio) was used for screening binding and determining the KD values of various compounds. OctetRED is based on the technique called Bio-layer interferometry (BLI). It measures changes in an interference pattern generated from visible light reflected from an optical layer and a biolayer containing proteins of interest. In the assay the target protein is biotinylated and coupled as a layer on the optic probe (Super Strepavidin). The concentration series was from 6.25 to 500 μM.
For the analysis method of KD determination, steady state analysis was used, where the response from steady state of the association phase was used for determining the binding curve for the analyte. Buffer for the analysis was selected to PBS-P+5% DMSO.

Data set [2] in a line: Solubility in DMSO and in buffer (Table 5). It is filed as physicochemical. Conditions: for Soluble in DMSO (100%): 100% DMSO; for solubility: aqueous buffer, numeric values; for solubility / Solubility in buffer: buffer; for Solubility in buffer: stated in words.
Data set [3] has as its target T2, WT-HMBS (Homo sapiens, UniProt P08397).
T2 construct: Full-length HMBS was cloned into pET-28a(+)-TEV vector and transformed into BL21 (DE3) cells for expression; 6xHis (N, cleaved yes); TEV protease cleavage site (N, cleaved yes); made in house; host or cells: E. coli BL21 (DE3)
T2 sequence (P08397 1-361): T1 sequence (P08397 1-361)
As to the kind of experiment: Octet RED96 KD determination (Example 22). It is filed as binding. Conditions: PBS-P+ 5% DMSO; for Binding: Octet RED96, 3.1 to 150 μM; for Kd: Octet RED96, steady state, sigmoidal fitting, 3.1 to 150 μM. How it is done: Octet RED96 (Forte Bio) was used for screening binding and determining the KD values for certain compounds. In the assay the target protein (WT-HMBS) was biotinylated and coupled as a layer on the optic probe. The concentration series for the tested compounds were from 3.1 to 150 μM, dissolved in PBS-P+5% DMSO.
For the analysis method of KD determination, steady state analysis was used in which the response from steady-state of the association phase was used for determining the binding curve for the analyte. KD values were calculated using sigmoidal fitting. The buffer for the analysis was selected to PBS-P+5% DMSO.

For data set [4], the target named is T2, WT-HMBS. As to the kind of experiment: DSF thermal upshift (ΔTm) of HMBS. It is filed as binding. The settings on record: Table 3, average compound concentration 122 μM (2% DMSO). How it is done:
Compounds BG-2, BG-3 and BG-4 were tested on recombinant WT-HMBS using DSF and tryptic proteolysis.

Data set [5] concerns the target T2, WT-HMBS. As to the kind of experiment: Limited proteolysis by trypsin. Format: biochemical. The settings on record: Table 3; 84 μM compound, 2% DMSO. The procedure:
Limited proteolysis by trypsin was performed at 37° C. in 20 mM HEPES, 150 mM NaCl, 2% DMSO, pH 8.2, with 0.15 μg/μl HMBS in the absence (DMSO-control) or presence of 84 μM compound and 2% DMSO. The proteolysis was initiated by adding 1 μg/ml TPCK-treated trypsin (Sigma-Aldrich). After 30 min, aliquots were removed and transferred to Laemmli loading buffer containing 2 μg/ml soybean trypsin inhibitor. Samples resolved by electrophoresis with 10% Mini-Protean® TGX™ gels (Bio-Rad Laboratories, Inc.) were analyzed using the Image Lab™ software (Bio-Rad Laboratories, Inc.). The unpaired t-test (two tailed) was performed using GraphPad Prism.
Limited tryptic proteolysis was also applied to compound BG-1. Proteolysis of WT-HMBS provided three major bands with relative content 34.5±0.3%, 14.7±0.8% and 50.9±0.5%, corresponding to remaining full-length HMBS (˜42.5 kDa), and two fragments of ˜41.0 kDa and ˜31.5 kDa, respectively (FIG. 1). […] The effect of this compound at 84 μM on the steady-state enzyme kinetics of HMBS was then calculated (Table 2).

The target of data set [6] is T1, HMBS. Kind of data set: Activity measurements in vitro (Example 23, TECAN plate reader). It is filed as biochemical. The settings on record: 5 and 50 μM compound in 2.5% DMSO, 30 min at 37° C., compared to HMBS with DMSO only. How it is done:
Activity measurements were carried out using TECAN plate reader for absorbance measurements. Activity measurements were based on measuring the light absorbance at 405 nm for determining the concentration of formed product, preuroporphyrinogen. Standard curve for measurements was measured using absorbance of known concentrations for Uroporphyrin I dihydrochloride, the cyclic derivative of preuroporphyrinogen. Two concentrations of the compound of Example 14, i.e. 5 and 50 μM in 2.5% DMSO were used. Protein was incubated 30 min in 37° C. with the compound, and mixed with MIX-buffer (50 mM HEPES pH 8, 2.5% DMSO) on Corning 96 well plate (clear bottom, half area, black). The solutions were pre-warmed to 37° C. prior to reaction. Reaction was started by adding PBG and after 5 min the reaction was stopped by adding the STOP solution (5 M HCl and 0.1% p-Benzoquinone mixed 1:1). Wells were covered and protected from light during the whole reaction.

Regarding `CN(C(=O)c1ccc(Cl)c([N+](=O)[O-])c1)c1ccccc1`, the KD result at HMBS [1] is “mM range (no saturation with 500 μM)”.
On the same count and under the same terms, under `Cc1cccc(C)c1C(=O)c1ccc(Cl)c([N+](=O)[O-])c1` stands “mM range (no saturation with 500 μM)”; under `O=C(c1ccncc1)c1ccc(Cl)c([N+](=O)[O-])c1`, “mM range (no saturation with 500 μM)”.
In turn, `Cc1ccc(C(=O)c2ccc(Cl)cc2)cc1[N+](=O)[O-]` showed a Kd on HMBS [1] of 7 µM.
In turn, `O=C(c1ccc(Cl)cc1)c1cc([N+](=O)[O-])ccc1Cl` came in with a Kd at HMBS [1] of 110 µM.
`O=C(c1ccc(Br)cc1)c1ccc(Cl)c([N+](=O)[O-])c1`: the KD result at HMBS [1] is “mM range (no saturation with 500 μM)”.
Take `COc1ccc(C(=O)c2ccc(Cl)c([N+](=O)[O-])c2)cc1`: on HMBS [1], the Kd is 300 µM.
In the case of `O=C(c1ccc(Cl)c([N+](=O)[O-])c1)c1ccc(Cl)c([N+](=O)[O-])c1`, the KD result at HMBS [1] is given as “mM range (no saturation with 500 μM)”.
Take `O=C(c1ccc(Cl)c(Cl)c1)c1ccc(Cl)c([N+](=O)[O-])c1`: at HMBS [1], binding was characterised by a dissociation constant (Kd) of 140 µM.
Still for that read-out and setting: under `COc1ccc(C(O)c2ccc(Cl)c([N+](=O)[O-])c2)cc1` (stereo not drawn) stands > 200 µM; under `O=Cc1cc(Cc2ccccc2Cl)ccc1O`, 190 µM; under `O=C(c1ccc(OCCN2CCCC2)cc1)c1ccc(N2CCCC2)c([N+](=O)[O-])c1`, > 200 µM.
On to `O=C(c1ccc(OC(F)(F)F)cc1)c1ccc(Cl)c(C(F)(F)F)c1`, for which, in data set [2], the “Soluble in DMSO (100%)” value was “Yes” and the concentration in solution (solubility) was 52 µM (≈ 19.2 µg/mL).
For `O=Cc1cc(Cc2ccccc2Cl)cc(C(F)(F)F)c1O`, at WT-HMBS [3], the Binding result is recorded as “Yes” and the Kd was 9.3 µM. In addition, in data set [2], the “Soluble in DMSO (100%)” value is listed as “Yes” and the Solubility in buffer result is on record as “Yes”.
In the case of `O=Cc1cc(Cc2ccccc2)cc([N+](=O)[O-])c1O` [BG-3], the ΔTm at 122 µM at WT-HMBS [4] amounted to 6.6 °C. For the same compound, the “Protection against tryptic proteolysis” value on WT-HMBS [5] was “+/− (+/−, ±2%)”.
On to `O=[N+]([O-])c1cc(Cc2ccccc2Cl)cc(CO)c1O` [BG-4], for which the ΔTm at 122 µM on WT-HMBS [4] was 4.7 °C. Moreover, the “Protection against tryptic proteolysis” value at WT-HMBS [5] is “+/− (+/−, ±2%)”.
Regarding `OCc1cc(Cc2ccccc2Cl)cc(C(F)(F)F)c1O` [Example 14, 4-(2-chlorobenzyl)-2-(hydroxymethyl)-6-(trifluoromethyl) phenol], the “HMBS activity in presence of compound” value on HMBS [6] is listed as “activation of HMBS”.
Consider `O=Cc1cc(Cc2ccccc2Cl)cc([N+](=O)[O-])c1O` [drawing 43], for which, on HMBS [1], the affinity, expressed as Kd, was 90 µM.
For `O=C(c1ccccc1)c1ccc(Cl)c([N+](=O)[O-])c1` [drawing 44], the KD result at HMBS [1] is “mM range (no”.
Regarding `O=Cc1cc(Cc2ccccc2Cl)cc([N+](=O)[O-])c1O` [drawing 59], at WT-HMBS [3], the Binding entry is listed as “Yes” and the dissociation constant (Kd) was determined as 83 µM. Besides, in data set [2], the “Soluble in DMSO (100%)” value is “Yes” and the solubility came to 384 µM (≈ 112 µg/mL).
Take `OCc1cc(Cc2ccccc2Cl)cc(C(F)(F)F)c1O` [drawing 62]: on WT-HMBS [3], the Binding result is given as “Yes” and the Kd worked out at 90 µM. In data set [2], the “Soluble in DMSO (100%)” value is recorded as “Yes” and the Solubility in buffer result is recorded as “Yes”.
